85 compounds from PubChem BioAssay AID588780 (Sanford-Burnham Center for Chemical Genomics, 2011) can be followed below.

Calls of active or inactive are those of the source.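 The calls were made as follows: active = compounds whose fitted half-maximal concentration in the cell-protection dose series is at or below a set limit; inactive = the rest.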

The assay concerns H9c2 cardiomyocytes, 2-deoxyglucose stress, ATP luminescence, 2 h. Kind of assay: protection of cardiomyocytes from 2-deoxyglucose injury, dose response, cell-based, 2-deoxyglucose stress, uHTS hits (AID 588780).
In general, IC50 refers to the concentration that gives 50% inhibition. For `CCCC(=O)Nc1nc2ccc(NC(=O)c3ccc(Br)o3)cc2s1`, the IC50 was > 79 µM (inactive).
Next, `CC(C)=CCc1ccc(O)c(=O)cc1C(C)C`: > 79 µM (inactive); `O=C(COC(=O)Cc1n[nH]c(=O)c2ccccc12)NNC(=O)c1ccc(Cl)cc1`: > 79 µM (inactive).
Turning to `Nc1ccc2c(c1)[nH]c(=O)c1ccccc12`, the IC50 is > 79 µM (inactive).
Next, `Oc1ccc2oc3c(c2c1C=NCc1ccncc1)CCCC3`: > 79 µM (inactive); `O=C(CN1C(=O)C2CC=CCC2C1=O)Nc1nc(-c2ccc(F)cc2)cs1` (stereo not given): 10.8 µM.
Next, `COc1ccc(-c2ccc3c(c2)S(=O)(=O)c2cccc(C(=O)N4CCN(c5c(Cl)cncc5Cl)CC4)c2C3=O)cc1OC`: > 79 µM (inactive); `CCOc1ccccc1C(=O)N/N=C/c1cccc2cccnc12`: > 79 µM (inactive).
As for `CC(=O)Oc1ccc2c(C)cc(=O)oc2c1`, the IC50 was > 79 µM (inactive).
`Cc1[nH]c2ccccc2c1C(=O)CSc1nc2ccccc2[nH]1`: the IC50 is > 79 µM (inactive).
Next, `O=C1NC(c2ccc(Cl)c([N+](=O)[O-])c2)Nc2ccccc21` (stereo not given): > 79 µM (inactive); `COc1ccccc1NS(=O)(=O)c1cccc(C(=O)N/N=C/c2c(CO)cnc(C)c2O)c1`: 31.8 µM (inactive).
As to `CC(=O)Nc1cccc(-c2cc(NC=O)c3ncc(-c4cccc(C(C)=O)c4)n3c2)c1`, the IC50 was > 79 µM (inactive).
Regarding `COc1ccc(Nc2nnc(SCc3cc(=O)n4ccsc4n3)s2)cc1`, the half-inhibitory concentration (IC50) is 14.1 µM.
Next, `O=C(N/N=C\c1ccccn1)c1cccc(C(=O)N/N=C\c2ccccn2)n1`: 36 µM (inactive); `O=C(Nc1nc(-c2ccccn2)cs1)c1cccc(-n2cnnn2)c1`: > 79 µM (inactive).
Next, `CCC(=O)N1CCN(c2ccc(NC(=O)c3cc4ccccc4o3)cc2Cl)CC1`: > 79 µM (inactive); `COc1ccc(OC)c(/C=N/NC(=O)c2cc3c(OC)c(OC)ccc3[nH]2)c1`: > 79 µM (inactive).
For `CCOC(=O)c1c(C)[nH]c(C)c1C(=O)COc1ncnc2cc([N+](=O)[O-])ccc12`, the IC50 was 14.6 µM.
For the compound `O=C(CCc1nc2ccccc2c(=O)[nH]1)N1CCN(S(=O)(=O)c2cccc(F)c2)CC1`, the IC50 was > 79 µM (inactive).
`NC(=O)c1nsc(C(=O)N(c2ccccc2)C(C(=O)NC2CCCC2)c2ccc3ncccc3c2)c1N` (stereo not given): the IC50 is > 79 µM (inactive).
Next, `COc1ccc(C2/C=C\CN(S(=O)(=O)c3cccc4cccnc34)CC(=O)N2Cc2ccc(F)cc2)cc1` (stereo not given): > 79 µM (inactive).
Next, `C=C1C(C)C2C(Cc3ccccc3)NC(=O)C23OC(=O)/C=C/C(O)CCCC(C)C/C=C/C3C1O` (stereo not given): > 79 µM (inactive); `COc1cccc(/C=N/NC(=O)c2nc(-c3ccccc3)cc(-c3ccccc3)n2)c1`: > 79 µM (inactive); `COc1cc(/C=N/NC(=O)c2ccncc2)ccc1OC(=O)c1ccccc1Cl`: > 79 µM (inactive).
Next, `Cc1ccc(C(C)C)c(OCC(=O)NNC(=O)Cn2[nH]c(=O)c3ccccc3c2=O)c1`: 75.1 µM (inactive); `CCCc1cc(=O)oc2c(CNc3ccc(OCC)cc3)c(O)ccc12`: 17.4 µM; `Cn1c(=O)c2c(nc(NCc3ccc4c(c3)OCO4)n2C)n(C)c1=O`: > 79 µM (inactive).
On to `COc1ccc(Br)cc1C(=O)Nc1cccc(NC(=O)c2ccco2)c1`, for which the IC50 was > 79 µM (inactive).
Next, `CC12CCC3C(CCC4CC(O)CCC43C)C1CC(O)C2` (stereo not given): > 79 µM (inactive).
Next, `COC(=O)c1ccccc1S(=O)(=O)N(Cc1ccco1)Cc1cc2cc(OC)ccc2[nH]c1=O`: 15.4 µM; `CCOc1ccc(S(=O)(=O)N(C)CCO)cc1-c1nc2c(C(C)(C)C)nn(C)c2c(=O)[nH]1`: 26.9 µM; `COC(=O)c1cccc(S(=O)(=O)N(Cc2ccco2)Cc2cc3cc(OC)ccc3[nH]c2=O)c1`: > 79 µM (inactive).
Next, `Brc1ccc(CSc2ccc3nnc(-c4cccnc4)n3n2)cc1`: > 79 µM (inactive); `Fc1ccc(NC(=S)Nc2ccc3nccnc3c2)cc1`: > 79 µM (inactive).
Take `O=c1[nH]nc(-c2cccs2)c2ccccc12`: the half-inhibitory concentration (IC50) was 5.51 µM.
Next, `CC(=O)c1ccccc1OCCCN1CCCCC1`: > 79 µM (inactive); `COc1cc(-n2c(=O)c3ccccc3n(Cc3cc(=O)n4ccccc4n3)c2=O)cc(OC)c1OC`: > 79 µM (inactive); `CC1Cc2ccccc2C(=O)N1` (stereo not given): > 79 µM (inactive).
Next, `Cc1ccc(NC(=O)c2cc(-c3cccs3)nc3ccccc23)nc1`: 9.88 µM.
Next, `Cn1c(=O)c2c(nc(Br)n2Cc2ccc3ccccc3c2)n(C)c1=O`: > 79 µM (inactive).
On to `O=C(CCCn1c(SCC(=O)c2ccc(O)c(O)c2)nc2ccccc2c1=O)NCC1CCCO1` (stereo not given), for which the IC50 was 38.7 µM (inactive).
On to `COc1ccc2[nH]c(=O)c(CNc3ccc(C)c(C)c3)cc2c1`, for which the IC50 was 49.8 µM (inactive).
For `Cc1sc2nc(SCC(=O)N3CCCC3)[nH]c(=O)c2c1C`, the IC50 is > 79 µM (inactive).
Next, `Cn1c(-n2c(CCCN3C(=O)c4ccccc4C3=O)nc3ccccc3c2=O)nc2ccccc21`: 26.4 µM; `O=C(Nc1ccccc1)c1nc[nH]c1C(=O)NCCCCCCNC(=O)c1[nH]cnc1C(=O)Nc1ccccc1`: 10.5 µM; `CCOC(=O)Cc1c(C)nc2c(-c3ccc(Cl)cc3)c[nH]n2c1=O`: > 79 µM (inactive).
Next, `CCOC(=O)C1C(=O)NC(SCC(=O)OC)=C(C#N)C1c1ccccc1OCC` (stereo not given): 17 µM; `CCC(Oc1ccccc1)C(=O)Nc1ccccc1C(=O)N1CCCCC1` (stereo not given): 25.3 µM.
Next, `O=C(CCc1nc2ccccc2c(=O)[nH]1)N1CCN(c2ccc(F)cc2)CC1`: > 79 µM (inactive); `Cc1ccc(C(=O)Nc2cccc(C(F)(F)F)c2)cc1NC(=O)c1csc(-c2ccncc2)n1`: > 79 µM (inactive).
In the case of `CCOC(=O)c1c(C)[nH]c(O)c1C=Nc1ccc(Cl)cc1`, the IC50 was > 79 µM (inactive).
Next, `CCN(CCO)c1ncnc2c1sc1nc(C(C)C)c3c(c12)CC(C)(C)OC3`: > 79 µM (inactive).
Next, `COc1ccc(NC(=O)CCc2nc3ccccc3c(=O)[nH]2)cc1S(=O)(=O)N1CCCCC1`: > 79 µM (inactive); `CC(C)(C)OC(=O)N1CCC(NC(=O)c2nc[nH]c2C(=O)NCC(=O)OCc2ccccc2)CC1`: > 79 µM (inactive).
Next, `O=C(Nc1ccc(CN2CCOCC2)cc1)c1ccc(-c2cccc([N+](=O)[O-])c2)o1`: > 79 µM (inactive); `Cc1csc(SCc2nc3sc4c(c3c(=O)[nH]2)CCC4)n1`: > 79 µM (inactive); `COc1ccc(N2CC(C(=O)NCc3n[nH]c(=O)c4ccccc34)CC2=O)cc1` (stereo not given): > 79 µM (inactive).
On to `CCOC(=O)C1CCN(C(=O)c2ccc3c(=O)n4nc(Nc5ccccc5OC)sc4nc3c2)CC1`, for which the IC50 is 19.3 µM.
Next, `COc1ccc(OCC(O)Cn2c(Nc3cccc(C)c3)nc3c2c(=O)n(C)c(=O)n3C)cc1` (stereo not given): > 79 µM (inactive); `O=c1c2ccccc2nc(/C=C/c2ccc(O)cc2)n1-c1ccc(O)cc1`: > 79 µM (inactive); `COc1nnc(-c2ccc(C)c(S(=O)(=O)NCCO)c2)c2ccccc12`: > 79 µM (inactive).
Next, `CSc1nc2ncc3c(n2n1)CC1c2ccccc2CCN1C3=O` (stereo not given): > 79 µM (inactive); `CCC(CC)C(=O)N(CCc1ccc(OC)cc1)Cc1nc2ccccc2c(=O)[nH]1`: > 79 µM (inactive).
Next, `COc1cc2[nH]c(=O)n3nc(-c4ccccc4)nc3c2cc1OC`: > 79 µM (inactive); `COc1ccc(C(=O)COc2ccccc2C(N)=O)cc1`: > 79 µM (inactive).
Regarding `COc1ccc(C=CC(=O)c2ccc3cc(OC)c(OC)cc3c2)cc1OC`, the IC50 is > 79 µM (inactive).
Next, `CCSc1nnc(N)s1`: > 79 µM (inactive); `CCC(=O)Oc1cccc(C(=O)Nc2ccc(-c3nnc(-c4ccco4)o3)cc2)c1`: > 79 µM (inactive).
On to `Cn1nc(C(=O)Nc2nc(-c3ccccn3)cs2)c2ccccc2c1=O`, for which the IC50 is 39.6 µM (inactive).
Next, `Cc1ccc(Cn2c(CCNc3nc(-c4ccc(Cl)c([N+](=O)[O-])c4)cs3)nc3cc(C(=O)NCCCO)ccc32)cc1`: > 79 µM (inactive); `CC(=O)Nc1ccc(C(=O)Nc2nc(-c3ccccn3)cs2)cc1`: 32.1 µM (inactive); `COc1cccc(NC(=O)CN(C)C(=O)CCCc2nc3ccccc3c(=O)[nH]2)c1`: > 79 µM (inactive).
Next, `O=C(N/N=C/c1ccccn1)c1cc(-c2cccc3ccccc23)n[nH]1`: > 79 µM (inactive); `CC(=O)n1cc(/C=N/NC(=O)c2sc(C)nc2C)c2ccccc21`: > 79 µM (inactive); `COC(=O)Oc1ccc(/C=C/C(=O)OC(C)C)cc1OC(=O)OC`: 63.1 µM (inactive).
Next, `C/C(=N\NC(=O)c1cccnc1)c1ccc(OC2OCCOC2Oc2ccc(/C(C)=N/NC(=O)c3cccnc3)cc2)cc1` (stereo not given): 13.1 µM; `O=C(COc1ccc([N+](=O)[O-])cc1)Nc1nc(-c2ccccn2)cs1`: > 79 µM (inactive).
As for `CCc1nc(N2CCN(C(=O)c3ccco3)CC2)c2oc3ccccc3c2n1`, the IC50 was > 79 µM (inactive).
Next, `O=C(CCCN1C(=O)c2cccc3cccc(c23)C1=O)N1CCN(c2ccccc2O)CC1`: 10.3 µM.
Next, `O=C1N[C@H]2CC=C[C@H]2Nc2ccccc21`: > 79 µM (inactive); `COc1ccc(CCNC(=O)C(=O)NCC2CCCN2S(=O)(=O)c2ccccc2)cc1OC` (stereo not given): > 79 µM (inactive).
Take `Cn1c(/C=N/NC(=O)c2ccccc2)nc2ccccc21`: the IC50 was > 79 µM (inactive).
Next, `COc1cc(-c2cc(C(=O)NCc3ccco3)c3ccccc3n2)cc(OC)c1OC`: 16.6 µM.
Next, `CCN1CCN(c2nc3c(c(=O)[nH]2)CCC3)CC1`: > 79 µM (inactive).
